One data set concerns Salmonella. Conditions: cited from earlier work.
Another data set deals with Salmonella TA98. The data set can be described thus: Salmonella plate-incorporation mutagenicity assay, strain TA98, with S9 mix. The class given is cell-based.
For the next data set, the system named is Salmonella TA100. The data set can be described thus: Salmonella plate-incorporation mutagenicity assay, strain TA100. The class given is cell-based.
In the next data set the test system is Salmonella TA104. Put plainly: Salmonella plate-incorporation mutagenicity assay, strain TA104, with S9 mix. It is filed as cell-based.
The subject of the next data set is strain TA100. The class given is cell-based, Salmonella. Conditions: TA100 liquid-suspension; for Rev/10^6 survivors: DMSO 0.8; for Percent survival: DMSO 100.
The subject of data set [1] is DNA from Salmonella TA100. Put plainly: Stable DNA adducts by 32P-postlabeling in DNA of treated TA100. It is filed as cell-based. Conditions: DMSO 0.024 ± 0.000.
Data set [2] concerns DNA from Salmonella TA100. Put plainly: Abasic sites by aldehydic-site assay in DNA of treated TA100. It is filed as cell-based. As to conditions: DMSO 5.9 ± 0.33.

Where “and” joins values, the source holds several entries; their conditions need not be identical. Equal entries are not always repeated. Where two headings read alike, the source gives them in different places.

`c1ccc2c(c1)ccc1cc3c(cc12)sc1ccccc13` [BPT, benzo[b]phenanthro[2,3-d]thiophene]: the “Mutagenicity in Salmonella” value with Salmonella is “mutagenic”.

For `O[C@H]1C=Cc2ccc3c(sc4ccccc43)c2[C@@H]1O` [[2,1]BNT-1,2-diol], the “Mutagenicity in Salmonella TA100” value in the data set with Salmonella (TA100) was “not mutagenic”.

Turning to `O=S1(=O)C=Cc2c1ccc1ccc3ccccc3c21` [P[3,4-b]T sulfone, Phenanthro[3,4-b]thiophene sulfone], the Rev/plate came to 328 rev/plate in the data set on Salmonella TA98 (TA98 +S9, Test 1, 2 µg/plate, zero-dose 33/40/39); 982 rev/plate in the data set on Salmonella TA98 (TA98 +S9, Test 1, 5 µg/plate, zero-dose 33/40/39); 1373 rev/plate with Salmonella TA98 (TA98 +S9, Test 1, 10 µg/plate, zero-dose 33/40/39); 1324 rev/plate in the data set on Salmonella TA98 (TA98 +S9, Test 1, 20 µg/plate, zero-dose 33/40/39); 1124 rev/plate in the data set with Salmonella TA98 (TA98 +S9, Test 1, 40 µg/plate, zero-dose 33/40/39); 1268 rev/plate in the data set on Salmonella TA98 (TA98 +S9, Test 1, 80 µg/plate, zero-dose 33/40/39). Also, the Rev/plate is on record as 41/57 in the data set with Salmonella TA98 (TA98 +S9, Test 2, 0.5 µg/plate, zero-dose 43/41/30); 63/67 in the data set with Salmonella TA98 (TA98 +S9, Test 2, 1 µg/plate, zero-dose 43/41/30); 263/237 with Salmonella TA98 (TA98 +S9, Test 2, 2.5 µg/plate, zero-dose 43/41/30); 765/708 in the data set on Salmonella TA98 (TA98 +S9, Test 2, 5 µg/plate, zero-dose 43/41/30); 56/52 with Salmonella TA98 (TA98 +S9, Test 3, 0.5 µg/plate, zero-dose 49/50/50); 124/86 in the data set with Salmonella TA98 (TA98 +S9, Test 3, 1 µg/plate, zero-dose 49/50/50). Besides, the Rev/plate in the data set with Salmonella TA98 (TA98 +S9, Test 3, 2.5 µg/plate, zero-dose 49/50/50) is given as 293/366; with Salmonella TA98 (TA98 +S9, Test 3, 5 µg/plate, zero-dose 49/50/50), 1078/922; with Salmonella TA100 (TA100 +S9, Test 3, 0.1 µg/plate, zero-dose 127/118/125), 239/190; with Salmonella TA100 (TA100 +S9, Test 3, 0.25 µg/plate, zero-dose 127/118/125) it was 368/365; in the data set with Salmonella TA100 (TA100 +S9, Test 3, 0.5 µg/plate, zero-dose 127/118/125), 681/795; with Salmonella TA100 (TA100 +S9, Test 3, 1 µg/plate, zero-dose 127/118/125), 1332/1283. Moreover, the Rev/plate with Salmonella TA100 (TA100 +S9, Test 3, 2.5 µg/plate, zero-dose 127/118/125) is reported as 2801/2710; in the data set on Salmonella TA100 (TA100 +S9, Test 3, 5 µg/plate, zero-dose 127/118/125) it was 3090/3170; in the data set with Salmonella TA100 (TA100 +S9, Test 4, 0.1 µg/plate, zero-dose 112/140/115), 197/195; in the data set on Salmonella TA100 (TA100 +S9, Test 4, 0.25 µg/plate, zero-dose 112/140/115), 284/297; in the data set on Salmonella TA100 (TA100 +S9, Test 4, 0.5 µg/plate, zero-dose 112/140/115), 453/514; in the data set with Salmonella TA100 (TA100 +S9, Test 4, 1 µg/plate, zero-dose 112/140/115), 380/383. Moreover, the Rev/plate with Salmonella TA100 (TA100 +S9, Test 4, 2.5 µg/plate, zero-dose 112/140/115) is recorded as 1885 rev/plate; with Salmonella TA100 (TA100 +S9, Test 5, 0.1 µg/plate, zero-dose 102/119/99), 194/197; in the data set with Salmonella TA100 (TA100 +S9, Test 5, 0.25 µg/plate, zero-dose 102/119/99) it was 255/245; in the data set on Salmonella TA100 (TA100 +S9, Test 5, 0.5 µg/plate, zero-dose 102/119/99), 504/448; in the data set with Salmonella TA100 (TA100 +S9, Test 5, 1 µg/plate, zero-dose 102/119/99), 1037/993; with Salmonella TA100 (TA100 +S9, Test 5, 2.5 µg/plate, zero-dose 102/119/99) it was 2935/2875. The Rev/plate is 1068/1015 with Salmonella TA104 (TA104 +S9, Test 2, 2.5 µg/plate, zero-dose 276/260/270); 1603/1565 in the data set on Salmonella TA104 (TA104 +S9, Test 2, 5 µg/plate, zero-dose 276/260/270); 1488/1583 with Salmonella TA104 (TA104 +S9, Test 2, 10 µg/plate, zero-dose 276/260/270); 706/778 with Salmonella TA104 (TA104 +S9, Test 2, 20 µg/plate, zero-dose 276/260/270); 1027/982 in the data set on Salmonella TA104 (TA104 +S9, Test 3, 2.5 µg/plate, zero-dose 402/395/336); 1650/1580 with Salmonella TA104 (TA104 +S9, Test 3, 5 µg/plate, zero-dose 402/395/336). Also, the Rev/plate was 1652/1652 in the data set with Salmonella TA104 (TA104 +S9, Test 3, 10 µg/plate, zero-dose 402/395/336) and 758/919 with Salmonella TA104 (TA104 +S9, Test 3, 20 µg/plate, zero-dose 402/395/336). For the same compound, in the data set with Salmonella TA98 (plate-incorporation, +S9), the “Mutagenic potency, Revertants/µg ± S.E., TA98” value is 143 rev/µg and 143 ± 19 rev/µg. For the same compound, the “Mutagenicity call TA98” value with Salmonella TA98 (plate-incorporation, +S9) is given as “(+) (Called mutagenic (+) based on showing reproducible, dose-related increases in rev/plate that reached or exceeded 2-fold relative to zero-dose controls)”. Further, the “Mutagenic potency, Revertants/µg ± S.E., TA100” value in the data set with Salmonella TA100 (plate-incorporation, +S9) was determined as 914 ± 113 rev/µg. Besides, in the data set with Salmonella TA100 (plate-incorporation, +S9), the “Mutagenicity call TA100” value is reported as “(+) (Called mutagenic (+) based on showing reproducible, dose-related increases in rev/plate that reached or exceeded 2-fold relative to zero-dose controls)”. Further, in the data set on Salmonella TA100 (without S9 mix), the “Mutagenicity without S9 mix (direct-acting activity)” value is listed as “required metabolic activation to be mutagenic”. In the data set with Salmonella TA104 (plate-incorporation, +S9), the “Mutagenic potency, Revertants/µg ± S.E., TA104” value is recorded as 262 ± 135 rev/µg. The “Mutagenicity call TA104” value in the data set with Salmonella TA104 (plate-incorporation, +S9) is reported as “(+) (Called mutagenic (+) based on showing reproducible, dose-related increases in rev/plate that reached or exceeded 2-fold relative to zero-dose controls)”. The “Fold increase in mutant frequency relative to DMSO-treated cells” value with strain TA100 (10 µg/ml) is 17.6 fold; with strain TA100 (20 µg/ml), 62.1 fold. In addition, the “Rev/10^6 survivors” value with strain TA100 (10 µg/ml) turned out to be 14.1 Rev/10^6 survivors; in the data set with strain TA100 (20 µg/ml), 49.1 Rev/10^6 survivors. In addition, the Percent survival was 56% in the data set with strain TA100 (10 µg/ml) and 37% with strain TA100 (20 µg/ml). For the same compound, the “Stable adducts/10^8 nucleotides ± S.E” value in data set [1] (TA100, 10 µg/ml) is “Not detected”; in data set [1] (TA100, 20 µg/ml), “Not detected”. Further, the “Abasic sites/10^5 nucleotides ± S.E” value in data set [2] (TA100, 10 µg/ml) amounted to 18.4 ± 0.64 sites/10^5 nucleotides; in data set [2] (TA100, 20 µg/ml) it was 15.1 ± 0.43 sites/10^5 nucleotides.

These data come from PMC2819846 (Mutation research, 2008).
